Data reported in PubChem BioAssay AID330 (DTP/NCI, 2004).
Where “and” joins values, the source holds several entries; their conditions need not be identical. Equal entries are not always repeated. Toxic doses and inconclusive results are not listed.

Tested on: P388 leukemia ip, CD2F1 mice, survival T/C
Assay: NCI In Vivo Anticancer Drug Screen. Data for tumor model P388 Leukemia (intraperitoneal) in CD2F1 (CDF1) mice
Details: endpoint: median survival time, higher = longer survival
Procedure, shortened: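 Mice carrying the transplanted tumor received test compound or vehicle. Survival was recorded in each group, and the value is the treated-group measurement divided by that of the vehicle-treated control group.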

[1] = dose: 12.5 mg/kg/injection, schedule: Q01DX009 (ip), vehicle: saline with Tween-80
[2] = dose: 25.0 mg/kg/injection, schedule: Q01DX009 (ip), vehicle: saline with Tween-80
[3] = dose: 25.0 mg/kg/injection, schedule: Q01DX009 (ip), vehicle: saline
[4] = dose: 50.0 mg/kg/injection, schedule: Q01DX009 (ip), vehicle: saline with Tween-80
[5] = dose: 50.0 mg/kg/injection, schedule: Q01DX009 (ip), vehicle: saline
[6] = dose: 100.0 mg/kg/injection, schedule: Q01DX009 (ip), vehicle: saline
[7] = dose: 200.0 mg/kg/injection, schedule: Q01DX009 (ip), vehicle: saline
[8] = dose: 50.0 mg/kg/injection, schedule: Q01DX005 (ip), vehicle: saline with Tween-80
[9] = dose: 100.0 mg/kg/injection, schedule: Q01DX005 (ip), vehicle: saline with Tween-80
[10] = dose: 200.0 mg/kg/injection, schedule: Q01DX005 (ip), vehicle: saline with Tween-80
[11] = dose: 100.0 mg/kg/injection, schedule: Q01DX001 (ip), vehicle: saline with Tween-80
[12] = dose: 60.0 mg/kg/injection, schedule: Q01DX005 (ip), vehicle: saline with Tween-80
[13] = dose: 120.0 mg/kg/injection, schedule: Q01DX005 (ip), vehicle: saline with Tween-80
[14] = dose: 240.0 mg/kg/injection, schedule: Q01DX005 (ip), vehicle: saline with Tween-80
[15] = dose: 60.0 mg/kg/injection, schedule: Q01DX005 (ip), vehicle: Klucel (hydroxypropylcellulose) (HPC)
[16] = dose: 120.0 mg/kg/injection, schedule: Q01DX005 (ip), vehicle: Klucel (hydroxypropylcellulose) (HPC)
[17] = dose: 240.0 mg/kg/injection, schedule: Q01DX005 (ip), vehicle: Klucel (hydroxypropylcellulose) (HPC)
[18] = dose: 100.0 mg/kg/injection, schedule: Q01DX009 (ip), vehicle: saline with Tween-80
[19] = dose: 50.0 mg/kg/injection, schedule: Q04DX003 (ip), vehicle: saline with Tween-80

CCOC(CCC(CO)CO)OCC
T/C (dose: 50.0 mg/kg/injection, schedule: Q01DX009 (ip), vehicle: suspension in saline): 108 % of control
T/C (dose: 100.0 mg/kg/injection, schedule: Q01DX009 (ip), vehicle: suspension in saline): 112 % of control
T/C (dose: 200.0 mg/kg/injection, schedule: Q01DX009 (ip), vehicle: suspension in saline): 96 % of control

N#CCc1[nH]nc2ncnc(N)c12
T/C (dose: 6.25 mg/kg/injection, schedule: Q01DX009 (ip), vehicle: other): 102 % of control
T/C (dose: 12.5 mg/kg/injection, schedule: Q01DX009 (ip), vehicle: other): 103 % of control
T/C (dose: 25.0 mg/kg/injection, schedule: Q01DX009 (ip), vehicle: other): 97 % of control
T/C (dose: 50.0 mg/kg/injection, schedule: Q01DX009 (ip), vehicle: other): 97 % of control
T/C (dose: 100.0 mg/kg/injection, schedule: Q01DX009 (ip), vehicle: other): 105 % of control

NCCCNCCSP(=O)(O)O
T/C [1]: 106 % of control
T/C (dose: 12.5 mg/kg/injection, schedule: Q01DX009 (ip), vehicle: saline): 108 % of control
T/C [2]: 104 % of control
T/C [3]: 100 % of control and 104 % of control
T/C [4]: 95 % of control
T/C [5]: 103 % of control and 109 % of control
T/C [6]: 104 % of control and 87 % of control
T/C (dose: 200.0 mg/kg/injection, schedule: Q01DX009 (ip), vehicle: saline with Tween-80): 106 % of control
T/C [7]: 112 % of control

Cc1ccc(S(=O)(=O)N=Nc2c(O)c3ccccc3c3ccccc23)cc1
T/C [8]: 103 % of control
T/C [9]: 103 % of control
T/C [10]: 100 % of control

COc1cc2cc(c1Cl)N(C)C(=O)CC(OC(=O)C(C)N(C)C(=O)C(C)C)C1(C)OC1C(C)C1CC(O)(NC(=O)O1)C(OC)/C=C/C=C(C)C2O (stereo not given)
T/C (dose: 0.02 mg/kg/injection, schedule: Q01DX009 (ip), vehicle: steriod suspending solution): 168 % of control
T/C (dose: 0.05 mg/kg/injection, schedule: Q01DX009 (ip), vehicle: steriod suspending solution): 150 % of control
T/C (dose: 0.1 mg/kg/injection, schedule: Q01DX009 (ip), vehicle: steriod suspending solution): 186 % of control
T/C (dose: 0.2 mg/kg/injection, schedule: Q01DX009 (ip), vehicle: steriod suspending solution): 213 % of control
T/C (dose: 32.0 micrograms/kg/injection, schedule: Q01DX009 (ip), vehicle: distilled water + alcohol): 159 % of control

C/C(=C/Cc1ccccc1)C(=O)O
T/C [11]: 108 % of control
T/C (dose: 200.0 mg/kg/injection, schedule: Q01DX001 (ip), vehicle: saline with Tween-80): 108 % of control
T/C (dose: 400.0 mg/kg/injection, schedule: Q01DX001 (ip), vehicle: saline with Tween-80): 99 % of control

Cc1ccc(S(=O)(=O)OCCC(C)OS(=O)(=O)c2ccc(C)cc2)cc1 (stereo not given)
T/C [12]: 100 % of control
T/C [13]: 100 % of control
T/C [14]: 101 % of control

CCOC(=O)C1=C(O)C2(CC(C)=C(C)CS2=O)SC1=Nc1ccccc1 (stereo not given)
T/C [12]: 96 % of control
T/C [13]: 107 % of control
T/C [14]: 104 % of control

COc1ccc(OC)c(/C=C2/C(=O)N(c3ccccc3)N=C2C)c1
T/C [15]: 107 % of control
T/C [16]: 105 % of control
T/C [17]: 107 % of control

C=CC(=O)NCCSSCCNC(=O)C=C
T/C (dose: 6.25 mg/kg/injection, schedule: Q01DX009 (ip), vehicle: saline with Tween-80): 108 % of control
T/C [1]: 99 % of control
T/C [2]: 93 % of control
T/C [18]: 98 % of control

O=C(Nc1ccc(C2=NCCN2)cc1)c1ccc(NC(=O)c2ccc(C3=NCCN3)cc2)cc1
T/C (dose: 18.0 mg/kg/injection, schedule: Q01DX010 (ip), vehicle: saline): 154 % of control
T/C (dose: 27.0 mg/kg/injection, schedule: Q01DX010 (ip), vehicle: saline): 172 % of control

c1csc(C[N+]23CN4CN(CN(C4)C2)C3)c1
T/C (dose: 130.0 mg/kg/injection, schedule: Q01DX009 (ip), vehicle: saline): 109 % of control
T/C [7]: 118 % of control
T/C (dose: 300.0 mg/kg/injection, schedule: Q01DX009 (ip), vehicle: saline): 123 % of control

COC(=O)/C(O)=C(/O)C(=O)OC
T/C [8]: 99 % of control
T/C [9]: 100 % of control
T/C [10]: 99 % of control

CCOC(C[Se]c1ccccc1)OCC(F)(F)F (stereo not given)
T/C [19]: 90 % of control
T/C (dose: 100.0 mg/kg/injection, schedule: Q04DX003 (ip), vehicle: saline with Tween-80): 102 % of control
T/C (dose: 200.0 mg/kg/injection, schedule: Q04DX003 (ip), vehicle: saline with Tween-80): 111 % of control

O=C(N/N=C/c1cccc(O)c1O)c1ccccc1
T/C [8]: 104 % of control
T/C [9]: 109 % of control
T/C [10]: 119 % of control

O=c1nc(Nc2cccc(Cl)c2)oc2cc(Cl)oc(=O)c12
T/C [1]: 109 % of control
T/C [2]: 109 % of control
T/C [4]: 113 % of control and 115 % of control
T/C [18]: 95 % of control

CC1(O)/C=C\C=C(\CO)C2CC(C)(C)C2(O)CC1 (stereo not given)
T/C (dose: 6625.0 micrograms/kg/injection, schedule: Q01DX005 (ip), vehicle: Klucel (hydroxypropylcellulose) (HPC)): 100 % of control
T/C (dose: 13250.0 micrograms/kg/injection, schedule: Q01DX005 (ip), vehicle: Klucel (hydroxypropylcellulose) (HPC)): 98 % of control
T/C (dose: 26500.0 micrograms/kg/injection, schedule: Q01DX005 (ip), vehicle: Klucel (hydroxypropylcellulose) (HPC)): 94 % of control
T/C (dose: 53000.0 micrograms/kg/injection, schedule: Q01DX005 (ip), vehicle: Klucel (hydroxypropylcellulose) (HPC)): 87 % of control

Cc1c(C(=O)CC2OC(=O)C(Cl)=C2Cl)c2ccccc2n1C(=O)Nc1ccc(Cl)cc1 (stereo not given)
T/C [12]: 93 % of control
T/C [13]: 99 % of control
T/C [14]: 94 % of control

[Se]=P(c1ccccc1)(N1CC1)N1CC1
T/C (dose: 25.0 mg/kg/injection, schedule: Q04DX003 (ip), vehicle: saline with Tween-80): 108 % of control
T/C [19]: 109 % of control

CC(=NC(C)C)Nc1ccc(Cl)cc1
T/C [2]: 107 % of control
T/C [4]: 105 % of control
T/C [18]: 92 % of control

NC(CCSCc1ccccc1)P(=O)(O)O (stereo not given)
T/C [8]: 100 % of control
T/C [9]: 97 % of control
T/C [10]: 92 % of control

CC(C)(C)n1nc(C2CC2)c(Br)c1NC(=O)c1ccccc1Cl
T/C (dose: 30.0 mg/kg/injection, schedule: Q01DX005 (ip), vehicle: Klucel (hydroxypropylcellulose) (HPC)): 106 % of control
T/C [15]: 109 % of control
T/C [16]: 105 % of control
T/C [17]: 100 % of control

O=C(O)CCSSCCCS(=O)O
T/C (dose: 50.0 mg/kg/injection, schedule: Q01DX005 (ip), vehicle: saline): 109 % of control
T/C (dose: 100.0 mg/kg/injection, schedule: Q01DX005 (ip), vehicle: saline): 114 % of control
T/C (dose: 200.0 mg/kg/injection, schedule: Q01DX005 (ip), vehicle: saline): 124 % of control

CCCCOCC(=O)O
T/C [3]: 94 % of control
T/C [5]: 97 % of control
T/C [6]: 93 % of control

COc1ccc2c(c1)[C@]13CCN(N=O)[C@H](C2)[C@@H]1CCC(=O)C3
T/C (dose: 25.0 mg/kg/injection, schedule: Q01DX001 (ip), vehicle: saline with Tween-80): 92 % of control
T/C (dose: 50.0 mg/kg/injection, schedule: Q01DX001 (ip), vehicle: saline with Tween-80): 108 % of control
T/C [11]: 106 % of control and 92 % of control

CC(C)(C)c1cc(C(=O)O)c(Br)c(C(=O)O)c1
T/C [5]: 97 % of control
T/C [6]: 102 % of control
T/C [7]: 100 % of control

N#C/C(=C\c1c(Cl)cccc1Cl)c1nc2ccccc2[nH]1
T/C (dose: 50.0 mg/kg/injection, schedule: Q01DX009 (ip), vehicle: Klucel (hydroxypropylcellulose) (HPC)): 115 % of control
T/C (dose: 100.0 mg/kg/injection, schedule: Q01DX009 (ip), vehicle: Klucel (hydroxypropylcellulose) (HPC)): 103 % of control
T/C (dose: 200.0 mg/kg/injection, schedule: Q01DX009 (ip), vehicle: Klucel (hydroxypropylcellulose) (HPC)): 112 % of control

COC(=N)N(C)/N=C/c1ccccc1
T/C (dose: 100.0 mg/kg/injection, schedule: Q01DX001 (ip), vehicle: Klucel (hydroxypropylcellulose) (HPC)): 114 % of control
T/C (dose: 200.0 mg/kg/injection, schedule: Q01DX001 (ip), vehicle: Klucel (hydroxypropylcellulose) (HPC)): 115 % of control
